Tested on: MV-4-11 cells
Assay: Gene expression microarray analysis (Affymetrix PrimeView) and GSEA
Format: cell-based, human
Set-up: RFU PODN (11730768_x_at) / Fold change /veh PODN (11730768_x_at) / RFU LINC00158 (11744669_a_at) / Fold change /veh LINC00158 (11744669_a_at) / RFU DUSP10 (11751237_a_at) / Fold change /veh DUSP10 (11751237_a_at) / RFU ID3 (11757404_x_at) / Fold change /veh ID3 (11757404_x_at) / RFU PLEKHG5 (11737974_s_at) / Fold change /veh PLEKHG5 (11737974_s_at) / RFU LRRC4B (11730491_at) / Fold change /veh LRRC4B (11730491_at) / RFU GIMAP4 (11747438_a_at) / Fold change /veh GIMAP4 (11747438_a_at) / RFU KRT8 (11758183_x_at) / Fold change /veh KRT8 (11758183_x_at) / RFU CNN1 (11734310_a_at) / Fold change /veh CNN1 (11734310_a_at) / RFU VPS37D (11726825_at) / Fold change /veh VPS37D (11726825_at) / RFU C10orf10 (11716522_x_at) / Fold change /veh C10orf10 (11716522_x_at) / RFU KIR2DL2 /// KIR2DL4 /// KIR2DL5A /// KIR2DL5B /// KIR2DS1 /// KIR2DS2 /// KIR2DS3 /// KIR2DS4 /// KIR3DL3 /// KIR3DL3 /// KIR3DS1 (11738374_at) / Fold change /veh KIR2DL2 /// KIR2DL4 /// KIR2DL5A /// KIR2DL5B /// KIR2DS1 /// KIR2DS2 /// KIR2DS3 /// KIR2DS4 /// KIR3DL3 /// KIR3DL3 /// KIR3DS1 (11738374_at) / RFU C1QL1 (11718748_at) / Fold change /veh C1QL1 (11718748_at) / RFU TMPRSS4 (11747572_a_at) / Fold change /veh TMPRSS4 (11747572_a_at) / RFU HAMP (11756126_x_at) / Fold change /veh HAMP (11756126_x_at) / RFU RNFT2 (11725882_a_at) / Fold change /veh RNFT2 (11725882_a_at) / RFU NR4A2 (11747474_a_at) / Fold change /veh NR4A2 (11747474_a_at) / RFU ABCC12 (11746883_a_at) / Fold change /veh ABCC12 (11746883_a_at) / RFU TMEM136 (11760407_x_at) / Fold change /veh TMEM136 (11760407_x_at) / RFU CLDN22 /// WWC2 (11732394_at) / Fold change /veh CLDN22 /// WWC2 (11732394_at) / RFU HLA-DPB1 (11760878_x_at) / Fold change /veh HLA-DPB1 (11760878_x_at) / RFU SPINT1 (11716480_a_at) / Fold change /veh SPINT1 (11716480_a_at) / RFU GAP43 (11754022_s_at) / Fold change /veh GAP43 (11754022_s_at) / RFU A4GNT (11735810_at) / Fold change /veh A4GNT (11735810_at) / RFU PRB3 (11715151_x_at) / Fold change /veh PRB3 (11715151_x_at) / RFU TUBB4B (11761932_at) / Fold change /veh TUBB4B (11761932_at) / RFU CAPN14 (11732068_a_at) / Fold change /veh CAPN14 (11732068_a_at) / RFU TMCC2 (11721928_a_at) / Fold change /veh TMCC2 (11721928_a_at) / RFU IRGQ (11745062_a_at) / Fold change /veh IRGQ (11745062_a_at) / RFU FAM174B (11720279_a_at) / Fold change /veh FAM174B (11720279_a_at) / RFU TMPRSS4 (11748680_a_at) / Fold change /veh TMPRSS4 (11748680_a_at) / RFU FAM212B (11763350_a_at) / Fold change /veh FAM212B (11763350_a_at) / RFU PLEKHG5 (11743358_a_at) / Fold change /veh PLEKHG5 (11743358_a_at) / RFU ZSCAN30 (11745921_a_at) / Fold change /veh ZSCAN30 (11745921_a_at) / RFU CMKLR1 (11741424_a_at) / Fold change /veh CMKLR1 (11741424_a_at) / RFU LOC101060620 /// MAPK8IP1 (11723275_at) / Fold change /veh LOC101060620 /// MAPK8IP1 (11723275_at) / RFU SPTSSB (11747773_x_at) / Fold change /veh SPTSSB (11747773_x_at) / RFU PRSS12 (11739890_at) / Fold change /veh PRSS12 (11739890_at) / RFU BIN1 (11741810_x_at) / Fold change /veh BIN1 (11741810_x_at) / RFU WNT11 (11732464_a_at) / Fold change /veh WNT11 (11732464_a_at) / RFU C10orf10 (11716521_a_at) / Fold change /veh C10orf10 (11716521_a_at) / RFU C5orf56 (11738089_at) / Fold change /veh C5orf56 (11738089_at) / RFU CYB561 (11721691_x_at) / Fold change /veh CYB561 (11721691_x_at) / RFU ANKRD19P (11752326_a_at) / Fold change /veh ANKRD19P (11752326_a_at) / RFU OR2T12 /// OR2T33 /// OR2T8 (11738714_s_at) / Fold change /veh OR2T12 /// OR2T33 /// OR2T8 (11738714_s_at) / RFU VCAN (11748164_a_at) / Fold change /veh VCAN (11748164_a_at) / RFU JSRP1 (11732532_at) / Fold change /veh JSRP1 (11732532_at) / RFU KRTAP10-11 (11738290_x_at) / Fold change /veh KRTAP10-11 (11738290_x_at) / RFU MYO3A (11730013_a_at) / Fold change /veh MYO3A (11730013_a_at) / RFU EBF3 (11725865_a_at) / Fold change /veh EBF3 (11725865_a_at) / RFU CAMK2N1 (11719241_x_at) / Fold change /veh CAMK2N1 (11719241_x_at) / RFU C5orf56 (11738088_a_at) / Fold change /veh C5orf56 (11738088_a_at) / RFU OLFML3 (11715873_a_at) / Fold change /veh OLFML3 (11715873_a_at) / RFU LOC100653217 /// NTM (11731650_a_at) / Fold change /veh LOC100653217 /// NTM (11731650_a_at) / RFU MAPK11 (11762145_a_at) / Fold change /veh MAPK11 (11762145_a_at) / RFU FIZ1 (11724087_x_at) / Fold change /veh FIZ1 (11724087_x_at) / RFU OASL (11726364_x_at) / Fold change /veh OASL (11726364_x_at) / RFU SOX15 (11748057_x_at) / Fold change /veh SOX15 (11748057_x_at) / RFU CD79A (11719716_a_at) / Fold change /veh CD79A (11719716_a_at) / RFU HIST1H1D (11736915_at) / Fold change /veh HIST1H1D (11736915_at) / RFU CASKIN2 (11723855_a_at) / Fold change /veh CASKIN2 (11723855_a_at) / RFU LOC730098 (11760151_x_at) / Fold change /veh LOC730098 (11760151_x_at) / RFU OR4N2 (11742367_at) / Fold change /veh OR4N2 (11742367_at) / RFU PRRT2 (11749266_a_at) / Fold change /veh PRRT2 (11749266_a_at) / RFU SNX32 (11753110_a_at) / Fold change /veh SNX32 (11753110_a_at) / RFU CDHR5 (11726645_a_at) / Fold change /veh CDHR5 (11726645_a_at) / RFU RCAN1 (11760418_a_at) / Fold change /veh RCAN1 (11760418_a_at) / RFU FAM167A (11723789_a_at) / Fold change /veh FAM167A (11723789_a_at) / RFU FAM26E (11764081_at) / Fold change /veh FAM26E (11764081_at) / RFU ISYNA1 (11749810_s_at) / Fold change /veh ISYNA1 (11749810_s_at) / RFU ACY1 (11761880_at) / Fold change /veh ACY1 (11761880_at) / RFU 11764098_at / Fold change /veh 11764098_at / RFU SAMD14 (11745864_x_at) / Fold change /veh SAMD14 (11745864_x_at) / RFU NPB (11741838_a_at) / Fold change /veh NPB (11741838_a_at) / RFU TMPRSS6 (11731388_a_at) / Fold change /veh TMPRSS6 (11731388_a_at) / RFU KRTAP10-2 (11738614_at) / Fold change /veh KRTAP10-2 (11738614_at) / RFU ARHGAP8 /// PRR5-ARHGAP8 (11727945_x_at) / Fold change /veh ARHGAP8 /// PRR5-ARHGAP8 (11727945_x_at) / RFU KRTAP5-7 /// NADSYN1 (11734609_at) / Fold change /veh KRTAP5-7 /// NADSYN1 (11734609_at) / RFU RASL12 (11751679_a_at) / Fold change /veh RASL12 (11751679_a_at) / RFU CDKN2B (11736163_a_at) / Fold change /veh CDKN2B (11736163_a_at) / RFU PRF1 (11729649_at) / Fold change /veh PRF1 (11729649_at) / RFU, ZNF638 /// ZNF638-IT1 / Fold change vs veh, ZNF638 /// ZNF638-IT1 / RFU, PANK3 / Fold change vs veh, PANK3 / RFU, SH3YL1 / Fold change vs veh, SH3YL1 / RFU, ZEB2 / Fold change vs veh, ZEB2 / RFU, NRIP1 / Fold change vs veh, NRIP1 / RFU, PTTG1IP / Fold change vs veh, PTTG1IP / RFU, CAPN2 / Fold change vs veh, CAPN2 / RFU, MED14 / Fold change vs veh, MED14 / RFU, SNORA58 / Fold change vs veh, SNORA58 / RFU, C1orf63 / Fold change vs veh, C1orf63 / RFU, LRRFIP1 / Fold change vs veh, LRRFIP1 / RFU, NDUFAF7 / Fold change vs veh, NDUFAF7 / RFU, SLC12A2 / Fold change vs veh, SLC12A2 / RFU, IBTK / Fold change vs veh, IBTK / RFU, ESF1 / Fold change vs veh, ESF1 / Fold change vs veh, TMEM50B / RFU, TAOK1 / Fold change vs veh, TAOK1 / RFU, ACBD3 / Fold change vs veh, ACBD3 / RFU, TMA16 / Fold change vs veh, TMA16 / RFU, RWDD3 / Fold change vs veh, RWDD3 / RFU, BCAT1 / Fold change vs veh, BCAT1 / RFU, EDEM3 / Fold change vs veh, EDEM3 / RFU, TMEM33 / Fold change vs veh, TMEM33 / RFU, WDR75 / Fold change vs veh, WDR75 / RFU, AHCTF1 / Fold change vs veh, AHCTF1 / RFU, TFRC / Fold change vs veh, TFRC / RFU, ZDHHC17 / Fold change vs veh, ZDHHC17 / RFU, NOM1 / Fold change vs veh, NOM1 / RFU, ARL8B / Fold change vs veh, ARL8B / RFU, ZBTB11 / Fold change vs veh, ZBTB11 / RFU, TAMM41 / Fold change vs veh, TAMM41 / RFU, KIAA1704 /// LOC100996395 / Fold change vs veh, KIAA1704 /// LOC100996395 / RFU, ING1 / Fold change vs veh, ING1 / RFU, TRMT61B / Fold change vs veh, TRMT61B / RFU, FUBP3 / Fold change vs veh, FUBP3 / RFU, TP53 / Fold change vs veh, TP53 / RFU, TNKS2 / Fold change vs veh, TNKS2 / RFU, ZFP14 / Fold change vs veh, ZFP14 / RFU, ACTR2 / Fold change vs veh, ACTR2 / RFU, PPP3R1 / Fold change vs veh, PPP3R1 / RFU, PIK3R1 / Fold change vs veh, PIK3R1 / RFU, HNRNPA1 / Fold change vs veh, HNRNPA1 / RFU, RNF170 / Fold change vs veh, RNF170 / RFU, ZNF28 / Fold change vs veh, ZNF28 / RFU, RNGTT / Fold change vs veh, RNGTT / RFU, OGT / Fold change vs veh, OGT / RFU, BRD1 / Fold change vs veh, BRD1 / RFU, MARS / Fold change vs veh, MARS / RFU, ZNF655 / Fold change vs veh, ZNF655 / RFU, FAHD1 / Fold change vs veh, FAHD1 / RFU, BDP1 / Fold change vs veh, BDP1 / RFU, LRRCC1 / Fold change vs veh, LRRCC1 / RFU, ARID1A / Fold change vs veh, ARID1A / RFU, ZNF146 / Fold change vs veh, ZNF146 / RFU, ZNF330 / Fold change vs veh, ZNF330 / RFU, GPN3 / Fold change vs veh, GPN3 / RFU, C9orf123 / Fold change vs veh, C9orf123 / RFU, N4BP2L2 / Fold change vs veh, N4BP2L2 / RFU, ARFIP1 / Fold change vs veh, ARFIP1 / RFU, FAM179B / Fold change vs veh, FAM179B / RFU, BCL10 / Fold change vs veh, BCL10 / RFU, UHRF1BP1L / Fold change vs veh, UHRF1BP1L / RFU, BET1 / Fold change vs veh, BET1 / RFU, CNOT2 / Fold change vs veh, CNOT2 / RFU, ZNF268 / Fold change vs veh, ZNF268 / Fold change vs veh, ZNF507 / RFU, DGCR2 / Fold change vs veh, DGCR2 / RFU, WDSUB1 / Fold change vs veh, WDSUB1 / Fold change vs veh, HSP90B1 /// MIR3652 / RFU, ADSS / Fold change vs veh, ADSS / RFU, GK / Fold change vs veh, GK / RFU, ZNF148 / Fold change vs veh, ZNF148 / RFU, TAF9 / Fold change vs veh, TAF9 / RFU, SLC1A5 / Fold change vs veh, SLC1A5 / RFU, SLMO2 / Fold change vs veh, SLMO2 / RFU, ABCC4 / Fold change vs veh, ABCC4 / RFU, LOC101060439 /// RAP1B / Fold change vs veh, LOC101060439 /// RAP1B / RFU, RFX7 / Fold change vs veh, RFX7 / RFU, GTPBP10 / Fold change vs veh, GTPBP10 / RFU, CNEP1R1 / Fold change vs veh, CNEP1R1 / RFU, BIVM-ERCC5 /// ERCC5 / Fold change vs veh, BIVM-ERCC5 /// ERCC5 / RFU, ILF3 / Fold change vs veh, ILF3 / RFU 11762660_at / Fold change /veh 11762660_at / RFU VCAN (11757783_s_at) / Fold change /veh VCAN (11757783_s_at) / RFU DDX43 (11728927_at) / Fold change /veh DDX43 (11728927_at) / RFU KRT8 (11758188_x_at) / Fold change /veh KRT8 (11758188_x_at) / RFU NKD1 (11759106_at) / Fold change /veh NKD1 (11759106_at) / RFU SRD5A1 (11742802_a_at) / Fold change /veh SRD5A1 (11742802_a_at) / RFU TPSAB1 /// TPSB2 (11721975_s_at) / Fold change /veh TPSAB1 /// TPSB2 (11721975_s_at) / RFU GSTM3 (11746129_a_at) / Fold change /veh GSTM3 (11746129_a_at) / RFU IL23R (11737362_x_at) / Fold change /veh IL23R (11737362_x_at) / RFU TMEM51 (11727254_a_at) / Fold change /veh TMEM51 (11727254_a_at) / RFU PIWIL2 (11732686_x_at) / Fold change /veh PIWIL2 (11732686_x_at) / RFU ORM1 (11744905_x_at) / Fold change /veh ORM1 (11744905_x_at) / RFU CCDC152 (11743942_at) / Fold change /veh CCDC152 (11743942_at) / RFU ECM1 (11717891_a_at) / Fold change /veh ECM1 (11717891_a_at) / RFU IL23R (11748794_a_at) / Fold change /veh IL23R (11748794_a_at) / RFU TNFAIP8L3 (11732012_x_at) / Fold change /veh TNFAIP8L3 (11732012_x_at) / RFU MBOAT4 (11741988_at) / Fold change /veh MBOAT4 (11741988_at) / RFU 11764193_at / Fold change /veh 11764193_at / RFU TMEM53 (11763286_at) / Fold change /veh TMEM53 (11763286_at) / RFU MAGEB2 (11727129_at) / Fold change /veh MAGEB2 (11727129_at) / RFU TMEM200A (11744735_a_at) / Fold change /veh TMEM200A (11744735_a_at) / RFU CCDC152 (11751479_a_at) / Fold change /veh CCDC152 (11751479_a_at) / RFU FAM211A (11726209_a_at) / Fold change /veh FAM211A (11726209_a_at) / RFU RGS16 (11746705_a_at) / Fold change /veh RGS16 (11746705_a_at) / RFU VCAN (11755009_s_at) / Fold change /veh VCAN (11755009_s_at) / RFU RHOB (11743442_s_at) / Fold change /veh RHOB (11743442_s_at) / RFU RGS16 (11720943_a_at) / Fold change /veh RGS16 (11720943_a_at) / RFU RGS16 (11720944_at) / Fold change /veh RGS16 (11720944_at) / RFU, VPS4B / Fold change vs veh, VPS4B / RFU, CREB1 / Fold change vs veh, CREB1 / RFU, DNAJC13 / Fold change vs veh, DNAJC13 / RFU, GNAQ / Fold change vs veh, GNAQ / RFU, CDK5R1 / Fold change vs veh, CDK5R1 / RFU, ZRANB3 / Fold change vs veh, ZRANB3 / RFU, CUL4A / Fold change vs veh, CUL4A / RFU, CCNY / Fold change vs veh, CCNY / RFU, UFL1 / Fold change vs veh, UFL1 / RFU, COG3 / Fold change vs veh, COG3 / RFU, DIAPH2 / Fold change vs veh, DIAPH2 / RFU, SKA2 / Fold change vs veh, SKA2 / RFU, AFF3 / Fold change vs veh, AFF3 / RFU, LMF1 / Fold change vs veh, LMF1 / RFU, IPO11 / Fold change vs veh, IPO11 / RFU, DFFB / Fold change vs veh, DFFB / RFU, FOXP1 / Fold change vs veh, FOXP1 / RFU, CARD8 / Fold change vs veh, CARD8 / RFU, STRN3 / Fold change vs veh, STRN3 / RFU, ADK / Fold change vs veh, ADK / RFU, RASSF2 / Fold change vs veh, RASSF2 / RFU, WIPF1 / Fold change vs veh, WIPF1 / RFU, LARP1B / Fold change vs veh, LARP1B / RFU, RASA1 / Fold change vs veh, RASA1 / RFU, RB1 / Fold change vs veh, RB1 / RFU, PPFIA1 / Fold change vs veh, PPFIA1 / RFU, MAT2A / Fold change vs veh, MAT2A / RFU, CCT5 / Fold change vs veh, CCT5 / RFU, WDR92 / Fold change vs veh, WDR92 / RFU, CUX1 / Fold change vs veh, CUX1 / RFU, TTC7A / Fold change vs veh, TTC7A / RFU, TMEM135 / Fold change vs veh, TMEM135 / RFU, DEPTOR / Fold change vs veh, DEPTOR / RFU, CPM / Fold change vs veh, CPM / RFU, DNAJB6 / Fold change vs veh, DNAJB6 / RFU, CACNA2D3 / Fold change vs veh, CACNA2D3 / RFU, DTX4 / Fold change vs veh, DTX4 / RFU, TFCP2 / Fold change vs veh, TFCP2 / RFU, GMCL1 /// GMCL1P1 / Fold change vs veh, GMCL1 /// GMCL1P1 / RFU, AEBP2 / Fold change vs veh, AEBP2 / RFU, SNHG1 /// SNORD22 /// SNORD25 /// SNORD26 /// SNORD27 /// SNORD28 /// SNORD29 /// SNORD31 / Fold change vs veh, SNHG1 /// SNORD22 /// SNORD25 /// SNORD26 /// SNORD27 /// SNORD28 /// SNORD29 /// SNORD31 / Fold change (Aza/veh), C12orf56 (ProbeSet 11735607_a_at) / Fold change (ACY-1035/veh), C12orf56 (ProbeSet 11735607_a_at) / Fold change (Aza/veh), FGFR1OP (ProbeSet 11751329_s_at) / Fold change (ACY-1035/veh), FGFR1OP (ProbeSet 11751329_s_at) / Fold change (Aza/veh), VPS36 (ProbeSet 11739960_a_at) / Fold change (ACY-1035/veh), VPS36 (ProbeSet 11739960_a_at) / RFU SYPL1 (11715823_x_at) / Fold change /veh SYPL1 (11715823_x_at) / RFU IGFBP7 (11715501_s_at) / Fold change /veh IGFBP7 (11715501_s_at) / RFU REEP3 (11722064_at) / Fold change /veh REEP3 (11722064_at) / RFU IGLL1 (11728026_x_at) / Fold change /veh IGLL1 (11728026_x_at): dose or concentration left out as unconfirmed
Conditions: ProbeSet 11734782_x_at; LIST D

Nc1ncn([C@@H]2O[C@H](CO)[C@@H](O)[C@H]2O)c(=O)n1 [azacitidine]
RFU, WDR92: 49.30 RFU
